Molecular target: T1, human neutrophil elastase (Homo sapiens, UniProt P08246)
T1 construct: purchased Elastin Products Company
T1 sequence (P08246 30-267): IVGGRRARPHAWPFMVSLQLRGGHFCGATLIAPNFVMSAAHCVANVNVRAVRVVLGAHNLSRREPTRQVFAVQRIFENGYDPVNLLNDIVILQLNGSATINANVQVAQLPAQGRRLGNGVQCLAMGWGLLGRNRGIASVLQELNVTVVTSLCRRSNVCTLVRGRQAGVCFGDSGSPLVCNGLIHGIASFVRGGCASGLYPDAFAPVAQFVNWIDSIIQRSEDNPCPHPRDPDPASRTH
Assay: Inhibitory action against human neutrophil elastase (Test Example 1; fluorogenic substrate MeOSuc-AAPV-AMC, buffer with 2M NaCl, 0.002% Brij-35)
Format: biochemical
Details: 37° C., read-out: IC50 value (compound concentration required for 50% inhibition of human neutrophil elastase)
Protocol: Assay buffer (0.4 unit/ml HNE (human neutrophil elastase, available from Elastin Products Company), 200 mM HEPES [N-(2-hydroxyethyl)piperazine-N′-(2-ethanesulfonic acid)], pH 7.5, 2M NaCl, 0.002% Brij-35) 100 μl, water for injection 40 μl and DMSO (dimethyl sulfoxide) solution of the present compound 20 μl were mixed in a 96 well plate and the mixed solutions were pre-incubated at 37° C. for five minutes. After pre-incubation, MeOSuc-AAPV-AMC (methoxysuccinyl-alanyl-alanyl-prolyl-valyl-aminomethyl cumaride (available from Sigma Aldrich Co.) solution as fluorogenic substrate (which was dissolved in 10% DMSO solution so as to adjust to 0.5 mM) 40 μl was added to the above-prepared mixed solution so as to initiate the reaction, and the mixture was incubated at 37° C. for five minutes. The fluorescence intensity of AMC was measured at an excitation wavelength of 380 nm and a fluorescence wavelength of 460 nm and the inhibition ratio was determined.

| Molecule | IC50 [nM] |
| --- | --- |
| Cc1c(-c2ccnn2-c2ccc(C#N)cc2)c(=O)n(C)c(=O)n1-c1cccc(Br)c1 [Example 34, 4-[5-[1-(3-bromophenyl)-3,6-dimethyl-2,4-dioxo-1,2,3,4-tetrahydropyrimidin-5-yl]-1H-pyrazol-1-yl]benzonitrile] | 232 |
| Cc1c(-c2ccnn2-c2ccc(C#N)cc2)c(=O)n(C)c(=O)n1-c1cccc(F)c1 [Example 11, 4-[5-[1-(3-fluorophenyl)-3,6-dimethyl-2,4-dioxo-1,2,3,4-tetrahydropyrimidin-5-yl]-1H-pyrazol-1-yl]benzonitrile] | 1360 |
| 5-[1-(-chlorophenyl)-1H-pyrazol-5-yl]-3,6-dimethyl-1-(3-trifluoromethylphenyl)pyrimidin-2,4(1H,3H)-dione [Example 21] | 252 |
| COc1ccc(Cn2c(=O)c(-c3ccnn3-c3ccc(C#N)cc3)c(C)n(-c3cccc(C(F)(F)F)c3)c2=O)cc1 [Example 9, 4-[5-[3-(4-methoxybenzyl)-6-methyl-2,4-dioxo-1-(3-trifluoromethylphenyl)-1,2,3,4-tetrahydropyrimidin-5-yl]-1H-pyrazol-1-yl]benzonitrile] | 2950 |
| CCCn1c(=O)c(-c2ccnn2-c2ccc(C#N)cc2)c(N=CN(C)C)n(-c2cccc([N+](=O)[O-])c2)c1=O [Example 29, N′-[5-[1-(4-cyanophenyl)-1H-pyrazol-5-yl]-3-(3-nitrophenyl)-2,6-dioxo-1-propyl-1,2,3,6-tetrahydropyrimidin-4-yl]-N,N-dimethylformimidamide] | 2140 |
| Cc1c(-c2ccnn2-c2ccc(C#N)cc2)c(=O)n(C)c(=O)n1-c1cccc(C#N)c1 [Example 10, 3-[5-[1-(4-cyanophenyl)-1H-pyrazol-5-yl]-3,6-dimethyl-2,4-dioxo-3,4-dihydropyrimidin-1(2H)-yl]benzonitrile] | 648 |
| Cc1c(-c2ccnn2-c2ccc(F)cc2)c(=O)n(C)c(=O)n1-c1cccc(C(F)(F)F)c1 [Example 22, 5-[1-(4-fluorophenyl)-1H-pyrazol-5-yl]-3,6-dimethyl-1-(3-trifluoromethylphenyl)pyrimidin-2,4(1H,3H)-dione] | 793 |
| Cc1c(-c2ccnn2-c2ccc(C#N)cc2)c(=O)n(CCCCCNC(=O)OC(C)(C)C)c(=O)n1-c1cccc(C(F)(F)F)c1 [Example 8, tert-butyl 5-[5-[1-(4-cyanophenyl)-1H-pyrazol-5-yl]-4-methyl-2,6-dioxo-3-(3-trifluoromethyl)-2,3-dihydropyrimidine-1(6H)-yl]pentylcarbamate] | 64 |
| CCOC(=O)CCn1c(=O)c(-c2ccnn2-c2ccc(C#N)cc2)c(C)n(-c2cccc(C(F)(F)F)c2)c1=O [Example 4, 3-[5-[1-(4-cyanophenyl)-1H-pyrazol-5-yl]-4-methyl-2,6-dioxo-3-(3-trifluoromethylphenyl)-2,3-dihydropyrimidin-1(6H)-yl]propanoic acid ethyl ester] | 131 |

Next, values leading:

| IC50 [nM] | Molecule |
| --- | --- |
| 776 | Cc1c(-c2ccnn2-c2ccc(C#N)cc2)c(=O)n(CCCO)c(=O)n1-c1cccc(C(F)(F)F)c1 [Example 83, 4-[5-[3-(3-Hydroxypropyl)-6-methyl-2,4-dioxo-1-(3-trifluoromethylphenyl)-1,2,3,4-tetrahydropyrimidin-5-yl]-1H-pyrazol-1-yl]benzonitrile] |
| 232 | Cc1c(-c2ccnn2-c2ccc(C#N)cc2)c(=O)n(CC(N)=O)c(=O)n1-c1cccc(C(F)(F)F)c1 [Example 76, 2-[5-[1-(4-cyanophenyl)-1H-pyrazol-5-yl]-4-methyl-2,6-dioxo-3-(3-trifluoromethylphenyl)-2,3-dihydropyrimidin-1(6H)-yl]-acetamide] |
| 19900 | Cc1c(-c2ccnn2-c2ccc(C#N)cc2)c(=O)n(C)c(=O)n1-c1cccc(S(C)(=O)=O)c1 [Example 39, 4-(5-(3,6-dimethyl-1-(3-(methylsulfonyl)phenyl)-2,4-dioxo-1,2,3,4-tetrahydropyrimidin-5-yl)-1H-pyrazol-1-yl)benzonitrile] |
| 43 | CNCCn1c(=O)c(-c2ccnn2-c2ccc(C#N)cc2)c(C)n(-c2cccc(C(F)(F)F)c2)c1=O [Example 70, 4-[5-[6-Methyl-3-(2-methylaminoethyl)-2,4-dioxo-1-(3-trifluoromethylphenyl)-1,2,3,4-tetrahydropyrimidin-5-yl]-1H-pyrazol-1-yl]benzonitrile] |
| 138 | Cc1c(-c2ccnn2-c2ccc(C#N)cc2)c(=O)n(CC(=O)O)c(=O)n1-c1cccc(C(F)(F)F)c1 [Example 72, 2-[5-[1-(4-Cyanophenyl)-1H-pyrazole-5-yl]-4-methyl-2,6-dioxo-3-(3-trifluoromethylphenyl)-2,3-dihydropyrimidin-1(6H)-yl]acetic acid] |
| 169 | CC(=O)NCCn1c(=O)c(-c2ccnn2-c2ccc(C#N)cc2)c(C)n(-c2cccc(C(F)(F)F)c2)c1=O [Example 71, N-[2-[5-[1-(4-Cyanophenyl)-1H-pyrazol-5-yl]-4-methyl-2,6-dioxo-3-(3-trifluoromethylphenyl)-2,3-dihydropyrimidin-1(6H)-yl]ethyl]acetamide] |
| 74 | Cc1c(-c2cccnc2-c2ccc(C#N)cc2)c(=O)n(C)c(=O)n1-c1cccc(C(F)(F)F)c1 [Example 61, 4-[3-[3,6-dimethyl-2,4-dioxo-1-(3-trifluoromethylphenyl)-1,2,3,4-tetrahydropyrimidin-5-yl]-pyridin-2-yl]benzonitrile] |
| 12200 | Cc1c(-c2ccnn2-c2ccc(C#N)cc2)c(=O)n(C)c(=O)n1-c1cccc(C(=O)O)c1 [Example 103, 3-[5-[1-(4-Cyanophenyl)-1H-pyrazol-5-yl]-3,6-dimethyl-2,4-dioxo-3,4-dihydropyrimidin-1(2H)yl]benzoic acid] |
| 92500 | Cc1c(-c2ccnn2-c2ccc(C#N)cc2)c(=O)n(C)c(=O)n1-c1cccc(C(N)=O)c1 [Example 104, 3-[5-[1-(4-Cyanophenyl)1H-pyrazol-5-yl]-3,6-dimethyl-2,4-dioxo-3,4-dihydropyrimidin-1(2H)yl]benzamide] |
| 150 | Cc1c(-c2ccnn2-c2ccc(C#N)cc2S(C)(=O)=O)c(=O)n(C)c(=O)n1-c1cccc(C(F)(F)F)c1 [Example 102, 4-[5-[3,6-Dimethyl-2,4-dioxo-1-(3-trifluoromethylphenyl)-1,2,3,4-tetrahydropyrimidin-5-yl]-1H-pyrazol-1-yl]-3-(methylsulfonyl)benzonitrile] |
| 535 | Cc1c(-c2ccnn2-c2ccc(C#N)cc2)c(=O)n(CCC(=O)O)c(=O)n1-c1cccc(C(F)(F)F)c1 [Example 73, 3-[5-[1-(4-Cyanophenyl)-1H-pyrazol-5-yl]-4-methyl-2,6-dioxo-3-(3-trifluoromethylphenyl)-2,3-dihydropyrimidin-1(6H)-yl]propanoic acid] |
| 332 | CCc1cccc(-n2c(C)c(-c3ccnn3-c3ccc(C#N)cc3)c(=O)n(C)c2=O)c1 [Example 108, 4-[5-[3,6-Dimethyl-2,4-dioxo-1-(3-ethylphenyl)-1,2,3,4-tetrahydropyrimidin-5-yl]-1H-pyrazol-1-yl]benzonitrile] |
| 159 | CCCn1c(=O)c(-c2ccnn2-c2ccc(C#N)cc2)c(N)n(-c2cccc([N+](=O)[O-])c2)c1=O [Example 57, 4-[5-[6-Amino-1-(3-nitrophenyl)-2,4-dioxo-3-propyl-1,2,3,4-tetrahydropyrimidin-5-yl]-1H-pyrazol-1-yl]benzonitrile] |

Same assay, conditions: at 100 μM

| Inhibition ratio (%) | Molecule |
| --- | --- |
| 50 | COC(=O)c1cccc(-n2c(C)c(-c3ccnn3-c3ccc(C#N)cc3)c(=O)n(C)c2=O)c1 [Example 32, 3-[5-[1-(4-cyanophenyl)-1H-pyrazol-5-yl]-3,6-dimethyl-2,4-dioxo-3,4-dihydropyrimidin-1(2H)-yl]benzoic acid methyl ester] |
| 83 | Cc1c(-c2ccnn2-c2ccccc2)c(=O)n(C)c(=O)n1-c1cccc(C(F)(F)F)c1 [Example 20, 3,6-dimethyl-5-(1-phenyl-1H-pyrazol-5-yl)-1-(3-trifluoromethylphenyl)pyrimidin-2,4(1H,3H)-dione] |

Molecular target: T1, human neutrophil elastase
Assay: Inhibitory action 2 against human neutrophil elastase (Test Example 2; fluorogenic substrate MeOSuc-AAPV-AMC, buffer with 400 mM NaCl, 0.2 mg/ml BSA)
Format: biochemical
Details: 37° C., read-out: IC50 value (compound concentration required for 50% inhibition of human neutrophil elastase)
Protocol: Assay buffer (0.4 unit/ml HNE (human neutrophil elastase, available from Elastin Products Company), 200 mM HEPES [N-(2-hydroxyethyl)piperazine-N′-(2-ethanesulfonic acid)], pH 7.5, 400 mM NaCl, 0.2 mg/ml BSA (bovine serum albumin)) 100 μl, water for injection 20 μl and 1% DMSO (dimethyl sulfoxide) solution of the present compound 20 μl were mixed in a 96 well plate and the mixed solutions were pre-incubated at 37° C. for five minutes. After pre-incubation, MeOSuc-AAPV-AMC (methoxysuccinyl-alanyl-alanyl-prolyl-valyl-aminomethyl cumaride (available from Sigma Aldrich Corp.) solution as fluorogenic substrate (which was dissolved in 10% DMSO solution so as to adjust to 0.5 mM) 40 μl was added to the above-prepared mixed solution so as to initiate the reaction, and the mixture was incubated at 37° C. for five minutes. The fluorescence intensity of AMC was measured at an excitation wavelength of 380 nm and a fluorescence wavelength of 460 nm and the inhibition ratio was determined.

| IC50 [nM] | Molecule |
| --- | --- |
| 10.2 | Cc1c(-c2ccnn2-c2ccc(C#N)cc2)c(=O)n(C2CCN(C(=O)C(C)(C)N)CC2)c(=O)n1-c1cccc(C(F)(F)F)c1 [Example 357] |
| 13.5 | COCCNC(=O)c1cnn(-c2ccc(C#N)cc2)c1-c1c(C)n(-c2cccc(C(F)(F)F)c2)c(=O)n(C)c1=O [Example 178] |
| 14.7 | Cc1c(-c2ccnn2-c2ccc(C#N)cc2)c(=O)n(C(C)CCNc2ccncc2)c(=O)n1-c1cccc(C(F)(F)F)c1 (stereo not drawn) [Example 408] |
